Results on 6 compounds are retold here after patent publication US9862712B2, “Benzimidazole based EGFR inhibitors” (COUNCIL OF SCIENTIFIC & INDUSTRIAL RESEARCH, priority 2014, dated 2018).

In assay [1] the test system is U87MG Cell line (Glioblastoma cell line). As to the kind of experiment: MTT cell proliferation assay, U87MG Cell line. Format: cell-based. To be noted: Homo sapiens, U-87 MG, U87MG, 72 h, MTT. The protocol: (§1) 1. Protocol Followed for Anti Cancer Activity and Results, Cell Proliferation Assays: Cell lines used herein were purchased from NCCS (National Center for Cell Sciences) Pune, India. Invitro Activity was performed in NCL (National Chemical Laboratory) Pune. Each cell line was plated in 96-well microtiter plates (10,000 cells per well), and serial dilutions of indicated compounds were added. At the end of the incubation period (72 h at 37° C.), cell viability was determined by a tetrazolium dye, MTT (3-(4,5-dimethylthiazol-2-yl)-2,5-diphenyl tetrazolium bromide) (Promega, USA). The formazan crystals were dissolved in DMSO, and the absorbance at 600 nm was recorded using an ELISA plate reader. IC50 values were calculated using nonlinear regression and defined as the concentration needed for a 50% reduction in absorbance of treated versus untreated control cells.
By using the above procedure, the compounds of the invention were tested on U87MG Cell line (glioblastoma cell line) and the results obtained are presented below in table 8, Refer FIG. 5.
In general terms: Tetrazolium assays rely on reduction of a dye to a coloured formazan, in cell work by metabolically active cells.

A further assay concerns MCF-7 Cell line. As to the kind of experiment: MTT cell proliferation assay, MCF-7 Cell line. To be noted: Homo sapiens, MCF7, 72 h, MTT; for viability at 0.01 µM: MCF-7, 0.01 μM; for viability at 0.1 µM: MCF-7, 0.1 μM; for viability at 2.5 µM: MCF-7, 2.5 μM; for viability at 5 µM: MCF-7, 5 μM; for viability at 10 µM: MCF-7, 10 μM. Format: cell-based. The procedure:
as §1
Table 4 indicates anticancer activity against A549 Cell line. The Gefitinib was used as standard and % cell Viable was measured compared to control. The procedure used was MTT assay as mentioned. […] By using the above procedure, the compounds of the invention were tested on MCF-7 Cell line and the results obtained are presented below in table 5, Refer FIG. 2.

The test system of another assay is MDA-MB-436 Cell line. As to the kind of experiment: MTT cell proliferation assay, MDA-MB-436 Cell line. Format: cell-based. To be noted: Homo sapiens, 72 h, MTT; for viability at 0.01 µM: MDA-MB-436, 0.01 μM; for viability at 0.1 µM: MDA-MB-436, 0.1 μM; for viability at 2.5 µM: MDA-MB-436, 2.5 μM; for viability at 5 µM: MDA-MB-436, 5 μM; for viability at 10 µM: MDA-MB-436, 10 μM. The protocol: as §1
By using the above procedure, the compounds of the invention were tested on MDA-MB-436 Cell line and the results obtained are presented below in table 7, Refer FIG. 4.

The subject of assay [2] is A549 Cell line (Lung Cancer Cell line). Put plainly: MTT cell proliferation assay, A549 Cell line. Format: cell-based, human. To be noted: Homo sapiens, 72 h, MTT; for viability at 0.01 µM: A549, 0.01 μM; for viability at 0.1 µM: A549, 0.1 μM; for viability at 2.5 µM: A549, 2.5 μM; for viability at 5 µM: A549, 5 μM; for viability at 10 µM: A549, 10 μM. The procedure: as §1
By using the above procedure, the compounds of the invention were tested on A549 Cell line and the results obtained are presented below in table 4, Refer FIG. 1.

The next assay relates to HOP-62 Cell line. As to the kind of experiment: MTT cell proliferation assay, HOP-62 Cell line. Format: cell-based. To be noted: Homo sapiens, 72 h, MTT; for viability at 0.01 µM: HOP-62, 0.01 μM; for viability at 0.1 µM: HOP-62, 0.1 μM; for viability at 2.5 µM: HOP-62, 2.5 μM; for viability at 5 µM: HOP-62, 5 μM; for viability at 10 µM: HOP-62, 10 μM. The procedure:
as §1
By using the above procedure, the compounds of the invention were tested on HOP-62 Cell line and the results obtained are presented below in table 6, Refer FIG. 3.

As usually defined, the viability is a read-out of living cells in per cent, often relative to untreated cells. For `COc1ccc(Nc2nc(N)c(-c3nc4cc(C)ccc4[nH]3)s2)cc1` [Molecule S4-M11, N^2-(4-methoxyphenyl)-5-(5-methyl-1H-benzo[d]imidazol-2-yl)thiazole-2,4-diamine], the viability at 0.01 µM turned out to be 86.8% in assay [1]; 157% with MCF-7 Cell line; 96.8% in the assay with MDA-MB-436 Cell line; 94.8% in assay [2]; 157% in the assay with HOP-62 Cell line. Moreover, the viability at 0.1 µM in assay [1] turned out to be 71.7%; in the assay on MCF-7 Cell line, 133%; in the assay with MDA-MB-436 Cell line, 92.7%; in assay [2], 80.7%; in the assay with HOP-62 Cell line, 101%. The viability at 2.5 µM came out at 60.2% in assay [1]; 110% with MCF-7 Cell line; 84.2% with MDA-MB-436 Cell line; 72.8% in assay [2]; 98.2% in the assay with HOP-62 Cell line. Besides, the viability at 5 µM in assay [1] worked out at 49.8%; with MCF-7 Cell line, 101%; in the assay on MDA-MB-436 Cell line, 73.8%; in assay [2] it was 63.8%; in the assay with HOP-62 Cell line, 96.8%. For the same compound, the viability at 10 µM in assay [1] came out at 38.8%; in the assay with MCF-7 Cell line, 101%; in the assay on MDA-MB-436 Cell line it was 61.8%; in assay [2] it was 51.8%; in the assay with HOP-62 Cell line it was 91.8%.

In the case of `Cc1ccc(Nc2nc(N)c(-c3nc4cc(C)ccc4[nH]3)s2)cc1` [Molecule S4-M14, 5-(5-methyl-1H-benzo[d]imidazol-2-yl)-N2-p-tolylthiazole-2,4-diamine], in assay [1], the viability at 0.01 µM was 87%, the viability at 0.1 µM is 78.1%, the viability at 2.5 µM was 67.6% and the viability at 5 µM is 53.3%. Also, the viability at 10 µM in assay [1] was determined as 46.1%. Further, in the assay on MCF-7 Cell line, the viability at 0.01 µM stood at 94%, the viability at 0.1 µM worked out at 90.1%, the viability at 2.5 µM is 83.6% and the viability at 5 µM was determined as 69.3%. In addition, the viability at 10 µM in the assay on MCF-7 Cell line came out at 65.1%. Besides, in the assay on MDA-MB-436 Cell line, the viability at 0.01 µM came to 99%, the viability at 0.1 µM was determined as 98.1%, the viability at 2.5 µM worked out at 98.6% and the viability at 5 µM amounted to 99.3%. Besides, in the assay with MDA-MB-436 Cell line, the viability at 10 µM was determined as 94.1%. In assay [2], the viability at 0.01 µM stood at 96%, the viability at 0.1 µM was 84.1%, the viability at 2.5 µM was 71.1% and the viability at 5 µM turned out to be 62.1%. The viability at 10 µM in assay [2] was found to be 51.1%. In the assay with HOP-62 Cell line, the viability at 0.01 µM amounted to 101%, the viability at 0.1 µM is 95.1%, the viability at 2.5 µM was 93.6% and the viability at 5 µM is 88.3%. Further, the viability at 10 µM in the assay on HOP-62 Cell line worked out at 80.1%.

`Cc1ccc2[nH]c(-c3sc(Nc4ccccc4)nc3N)nc2c1` [Molecule S4-M10, 5-(5-methyl-1H-benzo[d]imidazol-2-yl)-N2-phenylthiazole-2,4-diamine]: in assay [1], the viability at 0.01 µM turned out to be 88.9%, the viability at 0.1 µM is 75%, the viability at 2.5 µM is 68.4% and the viability at 5 µM amounted to 55.4%. Moreover, the viability at 10 µM in assay [1] came to 41.4%. In the assay on MCF-7 Cell line, the viability at 0.01 µM turned out to be 141%, the viability at 0.1 µM stood at 120%, the viability at 2.5 µM was found to be 104% and the viability at 5 µM came out at 100%. Further, the viability at 10 µM with MCF-7 Cell line came to 100%. Also, in the assay with MDA-MB-436 Cell line, the viability at 0.01 µM was found to be 92.9%, the viability at 0.1 µM stood at 84%, the viability at 2.5 µM was determined as 76.4% and the viability at 5 µM was 61.4%. For the same compound, the viability at 10 µM with MDA-MB-436 Cell line was determined as 49.4%. In addition, in assay [2], the viability at 0.01 µM turned out to be 90.9%, the viability at 0.1 µM is 81%, the viability at 2.5 µM is 70.4% and the viability at 5 µM is 61.4%. In assay [2], the viability at 10 µM amounted to 49.4%. Further, in the assay with HOP-62 Cell line, the viability at 0.01 µM was determined as 104%, the viability at 0.1 µM worked out at 100%, the viability at 2.5 µM turned out to be 99.4% and the viability at 5 µM turned out to be 95.4%. In the assay on HOP-62 Cell line, the viability at 10 µM worked out at 89.4%.

For `Nc1nc(Nc2cccc(C(F)(F)F)c2)sc1-c1nc2ccccc2[nH]1` [Molecule S4-M8, 5-(1H-benzo[d]imidazol-2-yl)-N2-(3-(trifluoromethyl)phenyl)thiazole-2,4-diamine], in assay [1], the viability at 0.01 µM came to 86.6%, the viability at 0.1 µM came out at 73.8%, the viability at 2.5 µM turned out to be 61.6% and the viability at 5 µM turned out to be 54.6%. Besides, the viability at 10 µM in assay [1] stood at 41.6%. For the same compound, in the assay on MCF-7 Cell line, the viability at 0.01 µM was determined as 98.6%, the viability at 0.1 µM worked out at 90.8%, the viability at 2.5 µM was determined as 82.6% and the viability at 5 µM is 79.6%. For the same compound, in the assay with MCF-7 Cell line, the viability at 10 µM amounted to 69.6%. In addition, in the assay with MDA-MB-436 Cell line, the viability at 0.01 µM is 101%, the viability at 0.1 µM was determined as 99.8%, the viability at 2.5 µM is 98.6% and the viability at 5 µM was found to be 97.6%. Further, the viability at 10 µM with MDA-MB-436 Cell line worked out at 97.6%. In addition, in assay [2], the viability at 0.01 µM is 98.6%, the viability at 0.1 µM was determined as 88.8%, the viability at 2.5 µM worked out at 76.6% and the viability at 5 µM stood at 68.6%. In assay [2], the viability at 10 µM amounted to 59.6%. For the same compound, in the assay with HOP-62 Cell line, the viability at 0.01 µM came out at 99.6%, the viability at 0.1 µM is 90.8%, the viability at 2.5 µM was determined as 89.6% and the viability at 5 µM was 81.6%. In addition, the viability at 10 µM with HOP-62 Cell line is 80.6%.

As to `Cc1ccc(Nc2nc(N)c(-c3nc4ccccc4[nH]3)s2)cc1` [Molecule S4-M9, 5-(1H-benzo[d]imidazol-2-yl)-N2-p-tolylthiazole-2,4-diamine], in assay [1], the viability at 0.01 µM turned out to be 99.4%, the viability at 0.1 µM stood at 99.9%, the viability at 2.5 µM amounted to 99.4% and the viability at 5 µM stood at 98.6%. Moreover, the viability at 10 µM in assay [1] amounted to 96.9%. Besides, in the assay with MCF-7 Cell line, the viability at 0.01 µM amounted to 100%, the viability at 0.1 µM was 98.8%, the viability at 2.5 µM stood at 96.3% and the viability at 5 µM stood at 96.3%. Besides, the viability at 10 µM in the assay with MCF-7 Cell line came to 96.6%. In the assay on MDA-MB-436 Cell line, the viability at 0.01 µM amounted to 91%, the viability at 0.1 µM was determined as 85.8%, the viability at 2.5 µM amounted to 79.3% and the viability at 5 µM came to 69.3%. Further, the viability at 10 µM in the assay with MDA-MB-436 Cell line is 54.6%. For the same compound, in assay [2], the viability at 0.01 µM was 89%, the viability at 0.1 µM stood at 79.8%, the viability at 2.5 µM is 68.3% and the viability at 5 µM came out at 57.3%. The viability at 10 µM in assay [2] was found to be 48.3%. In the assay with HOP-62 Cell line, the viability at 0.01 µM is 123%, the viability at 0.1 µM was 101%, the viability at 2.5 µM was 100% and the viability at 5 µM was 98.3%. Besides, the viability at 10 µM in the assay on HOP-62 Cell line turned out to be 90.8%.

Take `COc1cc2ncnc(Nc3ccc(F)c(Cl)c3)c2cc1OCCCN1CCOCC1` [Gefitinib, reference compound]: in the assay with MCF-7 Cell line, the viability at 0.01 µM was determined as 55.2%, the viability at 0.1 µM came to 43.7%, the viability at 2.5 µM came to 35.3% and the viability at 5 µM was found to be 29.3%. Also, in the assay with MCF-7 Cell line, the viability at 10 µM came to 20.3%. Further, in the assay with MDA-MB-436 Cell line, the viability at 0.01 µM was determined as 55.2%, the viability at 0.1 µM is 43.7%, the viability at 2.5 µM worked out at 35.3% and the viability at 5 µM worked out at 29.3%. In addition, in the assay with MDA-MB-436 Cell line, the viability at 10 µM was determined as 20.3%. In the assay with HOP-62 Cell line, the viability at 0.01 µM is 55.2%, the viability at 0.1 µM amounted to 43.7%, the viability at 2.5 µM came to 35.3% and the viability at 5 µM turned out to be 29.3%. The viability at 10 µM in the assay on HOP-62 Cell line amounted to 20.3%.
